IC50 data for four molecules are collected here from ChEMBL document CHEMBL1133923, “Evolution of anti-HIV drug candidates. Part 3: Diarylpyrimidine (DAPY) analogues” (Bioorg Med Chem Lett, 2001).

What all share (assay): microbe, parasite or virus in culture
For assay [1], the system named is Human immunodeficiency virus 1. In kind it is functional, organism-based, MT4.
Assay [2] has as its system Human immunodeficiency virus 1. The settings on record: Human immunodeficiency virus 1, MT4.
Assay [3] relates to Human immunodeficiency virus 1. The settings on record: Human immunodeficiency virus 1, MT4. The source holds these as a separate data set.
Assay [4] relates to Human immunodeficiency virus 1. The settings on record: Human immunodeficiency virus 1, MT4. This is another data set of the same source.
Assay [5] relates to Human immunodeficiency virus 1. The settings on record: Human immunodeficiency virus 1, MT4. This is another data set of the same source.
Assay [6] deals with Human immunodeficiency virus 1. The settings on record: Human immunodeficiency virus 1, MT4. This is another data set of the same source.
Assay [7] relates to Human immunodeficiency virus 1. The settings on record: Human immunodeficiency virus 1, MT4. This is another data set of the same source.
The mark [8] stands for this setting: Human immunodeficiency virus 1, MT4.

In the case of `Cc1cc(C#N)cc(C)c1Nc1ccnc(Nc2ccc(C#N)cc2)n1`, the IC50 (commonly the concentration that inhibits the measured activity by half) came to 37 nM in assay [1] (mt4); 1090 nM in assay [2]; 34 nM in assay [3]; 1.9 nM in assay [4]; 7.1 nM in assay [5]; 7.8 nM in assay [6]. The molecule also yielded an IC50 in assay [7] of 0.4 nM.

For `Cc1cc(C#N)cc(C)c1Oc1ccnc(Nc2ccc(C#N)cc2)n1`, the IC50 in assay [1] (mt4) worked out at 94 nM; in assay [2] it was 798 nM; in assay [3] it was 73 nM; in assay [4] it was 2.7 nM; in assay [5], 37 nM; in assay [6], 19 nM. In assay [7], the IC50 came out at 1.1 nM.

Consider `Cc1cc(C)c(Nc2ccnc(Nc3ccc(C#N)cc3)n2)c(C)c1` [DAPIVIRINE], for which the IC50 in assay [1] (setting [8]) was 44 nM; in assay [2], over 10000 nM; in assay [3], 18 nM; in assay [4], 4.3 nM; in assay [5], 7.5 nM; in assay [6], 48 nM. The molecule also came in with an IC50 in assay [7] of 1 nM.

Take `Cc1cc(C#N)cc(C)c1Oc1nc(Nc2ccc(C#N)cc2)nc(N)c1Br` [ETRAVIRINE]: the IC50 came to 4.3 nM in assay [1] (setting [8]); 19 nM in assay [2]; 3.3 nM in assay [3]; 1.2 nM in assay [4]; 7 nM in assay [5]; 4.6 nM in assay [6]. The molecule further came in with an IC50 in assay [7] of 1.4 nM.
